Reference: patent US20050175535A1 (CV Therapeutics, Inc., priority 2000, published 2005)
Read-outs that look alike come from different tables or passages of the source. Blank lines part the entries; values can stand above or below the compound they belong to.

Columns and labels:
[1] = test system: rat isolated perfused heart; test: Coronary conductance / coronary perfusion pressure in isolated perfused rat hearts; conditions: for EC50: Rattus norvegicus; for effect on coronary conductance: isolated rat hearts, in words
Procedure: Briefly, rats of either sex weighing 230-260 grams were anesthetized by intraperitoneal injection of a mixture of ketamine (100 mg/ml) and xylazine (20 mg/ml). The chest of each rat was opened and the heart removed, and rinsed in ice-cold modified Krebs-Henseleit (K-H) solution containing NaCl 117.9, KCl 4.5, CaCl2 2.5, MgSO4 1.18, KH2PO4 1.18, pyruvate 2.0 mmo/L. The aorta was cannulated and the heart was perfused at a flow rate of 10 ml/min with modified K-H solution. The K-H solution (pH 7.4) was gassed continuously with 95% O2 and 5% CO2 and warmed to 35±0.5° C. The heart was electrically paced at a fixed cycle length of 240 ms (250 beats/min) using a bipolar electrode placed in the left atrium. The electrical stimuli were generated by a Grass stimulator (Model S48, W. Warwick, R.I.) and delivered through a Stimuli Isolation Unit (Model SIU5, Astro-Med, Inc., NY) as square-wave pulses of 3-msec in duration and with an amplitude of at least twice the threshold intensity.
The identity of the adenosine receptor subtype (A1 or A2A) mediating the coronary vasodilation was determined.
Coronary perfusion pressure (CPP) was measured using a pressure transducer that was connected to the aortic cannula via a T-connector positioned approximately 3 cm above the heart. CPP was monitored throughout an experiment and recorded either on a chart recorder (Gould Recorder 2200S, Valley View, Ohio) or a computerized recording system (PowerLab/4S, ADInstruments Pty Ltd, Australia). Only hearts with CPP ranging from 60 to 85 mmHg (in the absence of drugs) were used in the study. CC conductance (in ml/min/mmHg) was calculated as the ratio between coronary perfusion rate (10 ml/min) and CPP.

[2] = Coronary and peripheral artery blood flow velocity, HR and MAP in anesthetized closed-chest dogs; format: in vivo; design: APV: unit not given here; conditions: for APV / MAP / HR: Ado (200 or 300 ug/kg); for Coronary, maximal folds increase in average peak velocity (APVmax/APVbaseline) / Peripheral, maximal folds increase in average peak velocity (APVmax/APVbaseline): iv injection of CVT-3146 (1 μg/kg) and adenosine (200 or 300 μg/kg)
Procedure: Mongrel dogs (either sex, 17-21 kg; n=6) were obtained from a local vendor (Barton, Oxford, N.J.). Blood flow velocity in the coronary and cranial circumflex arteries was measured using Doppler transducer-tipped guide wires 0.014″ in diameter (FloWire®, model 1400J) purchased from Cardiometrics, Inc., Mountain View, Calif. For the positioning of the FloWire, a Judkins left coronary guiding catheter (JL3.5, 8F; Cordis) was used. Vascular arterial angiography was performed using Hypaque-76 contrast fluid (Bracco Diagnostics, Inc., Princeton, N.J.; Lot #9H28899) and a mobile fluoroscopic unit (Philips, BV 29). Systemic arterial blood pressure was measured using an electronic transducer-tipped catheter (Millar).
Following the administration of heparin (20 U/kg+100 U/hr), the pressure transducer-tipped catheter was introduced through the left femoral artery and positioned in the descending aorta. The Doppler FloWire was introduced through the right femoral artery. A peripheral vein was cannulated for the administration of all drugs. […] The sequence of positioning of the Doppler catheter was reversed in consecutive experiments. […] All parameters were allowed to recover (>30 min) to their respective baseline values between two consecutive drug administrations. […] The effect of adenosine on both coronary and peripheral artery APV was studied in five of the six dogs.
The following parameters were monitored and recorded: Average peak coronary and peripheral artery blood flow velocity (APV), mean arterial blood pressure (MAP) (mmHg), and sinus cycle length (SCL; msec). Differences in measure parameters were tested for statistical significance using ANOVA and Student's t test corrected for multiple measurements. Data are expressed as the mean±SEM.

A2A adenosine receptors = A2A adenosine receptors (Sus scrofa, UniProt K9IW67); test: Competitive radioligand binding, [3H]ZM241385, pig striatum membranes
A2A adenosine receptors, sequence (K9IW67 1-409): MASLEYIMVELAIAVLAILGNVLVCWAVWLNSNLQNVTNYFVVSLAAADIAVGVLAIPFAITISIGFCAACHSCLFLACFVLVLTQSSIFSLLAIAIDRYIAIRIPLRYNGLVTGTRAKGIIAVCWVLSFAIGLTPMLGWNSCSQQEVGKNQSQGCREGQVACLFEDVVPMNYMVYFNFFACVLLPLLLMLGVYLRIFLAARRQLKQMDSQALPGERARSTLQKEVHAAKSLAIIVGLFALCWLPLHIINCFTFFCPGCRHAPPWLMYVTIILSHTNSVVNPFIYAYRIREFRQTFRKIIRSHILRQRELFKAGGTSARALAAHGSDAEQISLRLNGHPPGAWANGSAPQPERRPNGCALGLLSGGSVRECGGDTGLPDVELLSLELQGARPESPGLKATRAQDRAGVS
Procedure: Membranes were also obtained from porcine striatial cells as follows. […] The homogenate was filtered through cotton gauze and centrifuged at 48,000g for 15 minutes at 4° C. […] The final pellet was frozen at −80° C. until used for receptor binding assays.

[3] = read-out: EC50, Coronary Conductance (Rat Isolated Heart)
[4] = read-out: pEC50 ± SEM, Coronary Conductance (Rat Isolated Heart) (converted)
[5] = CVT-3146 1 μg/kg, adenosine 200 or 300 μg/kg iv bolus, anesthetized dogs
[6] = anesthetized dogs, listed as adenosine

EC50 [1, 3]: 59.2 nM
EC50 [1, 4]: 57.5 nM
Compound: Nc1ncnc2c1ncn2[C@@H]1O[C@H](CO)[C@@H](O)[C@H]1O [Adenosine, adenosine, reference compound]
effect on coronary conductance [1]: concentration-dependent increases in coronary conductance
APV ([2]; Coronary, time 1′, Baseline 42 ± 5): 39 ± 8
MAP ([2]; Coronary, time 1′, Baseline […] ± 6): 113 ± 6 mmHg
HR ([2]; Coronary, time 1′, Baseline 170 ± 10): 175 ± 5
APV ([2]; Coronary, time 1.5′, Baseline 42 ± 5): 55 ± 8
MAP ([2]; Coronary, time 1.5′, Baseline […] ± 6): 117 ± 6 mmHg
HR ([2]; Coronary, time 1.5′, Baseline 170 ± 10): 171 ± 5
APV ([2]; Coronary, time 2′, Baseline 42 ± 5): 52 ± 7
MAP ([2]; Coronary, time 2′, Baseline […] ± 6): 120 ± 6 mmHg
HR ([2]; Coronary, time 2′, Baseline 170 ± 10): 170 ± 5
APV ([2]; Coronary, time 3′, Baseline 42 ± 5): 49 ± 6
MAP ([2]; Coronary, time 3′, Baseline […] ± 6): 125 ± 6 mmHg
HR ([2]; Coronary, time 3′, Baseline 170 ± 10): 168 ± 8
APV ([2]; Coronary, time 4′, Baseline 42 ± 5): 47 ± 6
MAP ([2]; Coronary, time 4′, Baseline […] ± 6): 126 ± 6 mmHg
HR ([2]; Coronary, time 4′, Baseline 170 ± 10): 164 ± 10
APV ([2]; Coronary, time 5′, Baseline 42 ± 5): 47 ± 6
MAP ([2]; Coronary, time 5′, Baseline […] ± 6): 128 ± 6 mmHg
HR ([2]; Coronary, time 5′, Baseline 170 ± 10): 163 ± 10
APV ([2]; Coronary, time 10″, Baseline 42 ± 5): 90 ± 10
MAP ([2]; Coronary, time 10″, Baseline […] ± 6): 126 ± 8 mmHg
HR ([2]; Coronary, time 10″, Baseline 170 ± 10): 174 ± 7
APV ([2]; Coronary, time 20″, Baseline 42 ± 5): 85 ± 10
MAP ([2]; Coronary, time 20″, Baseline […] ± 6): 90 ± 9 mmHg
HR ([2]; Coronary, time 20″, Baseline 170 ± 10): 166 ± 11
APV ([2]; Coronary, time 30″, Baseline 42 ± 5): 75 ± 9
MAP ([2]; Coronary, time 30″, Baseline […] ± 6): 107 ± 9 mmHg
HR ([2]; Coronary, time 30″, Baseline 170 ± 10): 173 ± 6
APV ([2]; Peripheral, time 1′, Baseline 33 ± 3): 44 ± 7
MAP ([2]; Peripheral, time 1′, Baseline 118 ± 8): 105 ± 6 mmHg
HR ([2]; Peripheral, time 1′, Baseline 165 ± 10): 171 ± 6
APV ([2]; Peripheral, time 1.5′, Baseline 33 ± 3): 38 ± 4
MAP ([2]; Peripheral, time 1.5′, Baseline 118 ± 8): 106 ± 7 mmHg
HR ([2]; Peripheral, time 1.5′, Baseline 165 ± 10): 171 ± 6
APV ([2]; Peripheral, time 2′, Baseline 33 ± 3): 35 ± 3
MAP ([2]; Peripheral, time 2′, Baseline 118 ± 8): 110 ± 6 mmHg
HR ([2]; Peripheral, time 2′, Baseline 165 ± 10): 169 ± 6
APV ([2]; Peripheral, time 3′, Baseline 33 ± 3): 33 ± 3
MAP ([2]; Peripheral, time 3′, Baseline 118 ± 8): 115 ± 7 mmHg
HR ([2]; Peripheral, time 3′, Baseline 165 ± 10): 165 ± 9
APV ([2]; Peripheral, time 4′, Baseline 33 ± 3): 31 ± 3
MAP ([2]; Peripheral, time 4′, Baseline 118 ± 8): 119 ± 8 mmHg
HR ([2]; Peripheral, time 4′, Baseline 165 ± 10): 160 ± 9
APV ([2]; Peripheral, time 5′, Baseline 33 ± 3): 30 ± 2
MAP ([2]; Peripheral, time 5′, Baseline 118 ± 8): 121 ± 7 mmHg
HR ([2]; Peripheral, time 5′, Baseline 165 ± 10): 158 ± 10
APV ([2]; Peripheral, time 10″, Baseline 33 ± 3): 62 ± 9
MAP ([2]; Peripheral, time 10″, Baseline 118 ± 8): 107 ± 9 mmHg
HR ([2]; Peripheral, time 10″, Baseline 165 ± 10): 171 ± 6
APV ([2]; Peripheral, time 20″, Baseline 33 ± 3): 76 ± 10
MAP ([2]; Peripheral, time 20″, Baseline 118 ± 8): 85 ± 9 mmHg
HR ([2]; Peripheral, time 20″, Baseline 165 ± 10): 162 ± 15
APV ([2]; Peripheral, time 30″, Baseline 33 ± 3): 59 ± 11
MAP ([2]; Peripheral, time 30″, Baseline 118 ± 8): 87 ± 9 mmHg
HR ([2]; Peripheral, time 30″, Baseline 165 ± 10): 168 ± 9
duration of >2-fold increase in coronary APV [2, 5]: < 20 s
time for all parameters to return to baseline post injection [2, 5]: ≤ 10 min
Coronary, maximal folds increase in average peak velocity (APVmax/APVbaseline) ([2]; anesthetized dogs): 2.5 ± 0.3 fold
Peripheral, maximal folds increase in average peak velocity (APVmax/APVbaseline) ([2]; anesthetized dogs): 2.0 ± 0.4 fold
Coronary, maximal folds increase in average peak velocity (APVmax/APVbaseline) [2, 6]: 2.5±0.3 fold
Peripheral, maximal folds increase in average peak velocity (APVmax/APVbaseline) [2, 6]: 2.0±0.4 fold

Ki (A2A adenosine receptors; [3H]ZM241385, Gpp(NH)p present, read-out: pKi ± SEM, Pig Strialum (A2A) (converted)): 2140 nM
Ki (A2A adenosine receptors; read-out: binding affinity to A2A receptors in pig striatum (Ki)): 1420 nM
EC50 [1, 3]: 68 nM
EC50 [1, 4]: 64.6 nM
Compound: CCCCCn1cc(-c2nc(N)c3ncn(C4O[C@@H](CO)[C@H](O)[C@@H]4O)c3n2)cn1 (some centres unmarked) [CVT-3033]
effect on coronary conductance [1]: increased coronary conductance in a concentration-dependent manner
